Assay results taken from PubChem BioAssay (NCI).
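Five compound concentrations were applied to cells in 96-well plates for 48 hours; endpoints were derived by simple linear interpolation of the resulting dose-response curve. GI50 is the concentration that inhibits growth by half. TGI: concentration producing complete growth inhibition.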

How the values were obtained:
Assay in all cases: DTP human tumour cell line panel, 48 h
[1] = tested on: A549 NSCLC
[2] = tested on: ACHN renal
[3] = tested on: BT-549 breast
[4] = tested on: HS 578T breast
[5] = tested on: KM12 colon
[6] = tested on: RXF 393 renal
[7] = tested on: SF-295 CNS
[8] = tested on: SN12C renal

SMILES	TGI [1]	TGI [2]	TGI [3]	TGI [4]	TGI [5]	TGI [6]	TGI [7]	TGI [8]	GI50 [1]	GI50 [2]	GI50 [4]	GI50 [5]	GI50 [7]	GI50 [8]	GI50 [3]	GI50 [6]
O=C(O)C1C2CC3C(OC(=O)C31)C2Br (stereo not drawn)	> 100 µM	> 100 µM	> 100 µM	> 100 µM	> 100 µM	> 100 µM	> 100 µM	> 100 µM	–	–	–	–	–	–	–	–
O=C(COc1cccc(/C=C2\COc3ccccc3C2=O)c1)Nc1nccs1	6.22 µM	3.55 µM	–	10.9 µM	3.15 µM	–	3.26 µM	5.25 µM	2.41 µM	1.86 µM	2.67 µM	1.71 µM	1.73 µM	2.08 µM	–	–
C=CC1CC12C(=O)C1OC2(C)C2C(=O)c3c(ccc4c3ccc3ccccc34)C(=O)C12 (stereo not drawn)	> 100 µM	88.1 µM	> 100 µM	> 100 µM	> 100 µM	83 µM	–	> 100 µM	95.2 µM	27.5 µM	68.1 µM	13.1 µM	–	64.3 µM	58.9 µM	25 µM
COc1ccc2c(c1)c(C1(c3cn(C)c4ccc(OC)cc34)C(=O)Nc3ccc(F)cc31)cn2C	–	> 100 µM	50.8 µM	> 100 µM	> 100 µM	16.2 µM	18.3 µM	31.5 µM	–	4.63 µM	9.01 µM	5.63 µM	2.95 µM	4.82 µM	10.6 µM	3.74 µM
COc1ccc2c(c1)CC[C@@H]1[C@@H]2CC[C@@]2(C)[C@H]1CC1(CCCCC1)[C@@H]2O	26.8 µM	28.2 µM	–	10.9 µM	27.3 µM	29.2 µM	23.1 µM	39 µM	5.58 µM	14.7 µM	3.59 µM	7.91 µM	9.05 µM	20.4 µM	–	4.68 µM
ClCCN(CCCl)c1ccc(-n2cnc3c(Cl)ncnc32)cc1	29.7 µM	3.54 µM	12.9 µM	9.79 µM	19.5 µM	3.33 µM	–	10.2 µM	12.5 µM	1.84 µM	2.95 µM	6.16 µM	–	3.17 µM	3.51 µM	1.86 µM
COc1cccc(/C=N\Nc2ccc([N+](=O)[O-])cn2)c1O	46.3 µM	7.61 µM	30 µM	> 100 µM	51.5 µM	12.7 µM	–	62 µM	4.26 µM	2.33 µM	4.52 µM	6.04 µM	–	4 µM	4.47 µM	2.79 µM
CC(C)(C)c1ccc([I+]c2ccc(C(C)(C)C)cc2)cc1	6.65 µM	12.2 µM	–	7.69 µM	2.83 µM	5.52 µM	5.28 µM	5.21 µM	2.43 µM	3.25 µM	1.98 µM	1.04 µM	2.22 µM	1.99 µM	–	1.99 µM
Nc1cc(-c2ccccc2)ccc1O	> 100 µM	> 100 µM	> 100 µM	–	> 100 µM	> 100 µM	> 100 µM	> 100 µM	> 100 µM	54.6 µM	–	58.4 µM	55.2 µM	68.9 µM	79.3 µM	> 100 µM
N#Cc1ccccc1C#C/C=C\C#Cc1ccc(OCCCNC(=O)c2cc3ccccc3[nH]2)cc1	> 100 µM	34.9 µM	> 100 µM	–	44.2 µM	52.2 µM	34.6 µM	–	22.9 µM	16.9 µM	–	16.3 µM	16.1 µM	–	20.2 µM	21.4 µM
O=C1Nc2ccccc2C1Cc1ccccc1 (stereo not drawn)	> 100 µM	> 100 µM	–	> 100 µM	> 100 µM	–	–	–	–	–	–	–	–	–	–	–
O=C1/C(=C/c2ccccc2Cl)N=C(c2ccccc2)N1Cc1ccco1	> 100 µM	> 100 µM	> 100 µM	> 100 µM	> 100 µM	93 µM	–	> 100 µM	27.7 µM	> 100 µM	72.8 µM	36.1 µM	–	50.6 µM	39.8 µM	16.4 µM
CCN(CC)c1ccc2c(c1)Oc1nc(N)c(C#N)c(N)c1C2Sc1ccc(SC)cc1 (stereo not drawn)	3.5 µM	3.04 µM	2.78 µM	7.1 µM	3.46 µM	3.31 µM	3.12 µM	–	1.94 µM	1.68 µM	2.15 µM	1.66 µM	1.67 µM	–	1.42 µM	1.66 µM
CCCCCCCCCCCCCCCC(=O)OCC(O)C1OC(=O)C(O)=C1O (stereo not drawn)	42.9 µM	98.7 µM	–	–	53 µM	86.8 µM	40.4 µM	96.9 µM	–	–	–	–	–	–	–	–
